{"source": "patent US4916126A", "about": "“Diacyl derivatives of 4-(trialkylbenzyl)-piperazinyl compounds” (Ciba-Geigy Corporation, priority 1988, dated 1990)", "key": {"[1]": {"biological_target": "RNA polymerase of Escherichia coli (Escherichia coli, UniProt P0A8V2)", "sequence (P0A8V2 whole entry)": "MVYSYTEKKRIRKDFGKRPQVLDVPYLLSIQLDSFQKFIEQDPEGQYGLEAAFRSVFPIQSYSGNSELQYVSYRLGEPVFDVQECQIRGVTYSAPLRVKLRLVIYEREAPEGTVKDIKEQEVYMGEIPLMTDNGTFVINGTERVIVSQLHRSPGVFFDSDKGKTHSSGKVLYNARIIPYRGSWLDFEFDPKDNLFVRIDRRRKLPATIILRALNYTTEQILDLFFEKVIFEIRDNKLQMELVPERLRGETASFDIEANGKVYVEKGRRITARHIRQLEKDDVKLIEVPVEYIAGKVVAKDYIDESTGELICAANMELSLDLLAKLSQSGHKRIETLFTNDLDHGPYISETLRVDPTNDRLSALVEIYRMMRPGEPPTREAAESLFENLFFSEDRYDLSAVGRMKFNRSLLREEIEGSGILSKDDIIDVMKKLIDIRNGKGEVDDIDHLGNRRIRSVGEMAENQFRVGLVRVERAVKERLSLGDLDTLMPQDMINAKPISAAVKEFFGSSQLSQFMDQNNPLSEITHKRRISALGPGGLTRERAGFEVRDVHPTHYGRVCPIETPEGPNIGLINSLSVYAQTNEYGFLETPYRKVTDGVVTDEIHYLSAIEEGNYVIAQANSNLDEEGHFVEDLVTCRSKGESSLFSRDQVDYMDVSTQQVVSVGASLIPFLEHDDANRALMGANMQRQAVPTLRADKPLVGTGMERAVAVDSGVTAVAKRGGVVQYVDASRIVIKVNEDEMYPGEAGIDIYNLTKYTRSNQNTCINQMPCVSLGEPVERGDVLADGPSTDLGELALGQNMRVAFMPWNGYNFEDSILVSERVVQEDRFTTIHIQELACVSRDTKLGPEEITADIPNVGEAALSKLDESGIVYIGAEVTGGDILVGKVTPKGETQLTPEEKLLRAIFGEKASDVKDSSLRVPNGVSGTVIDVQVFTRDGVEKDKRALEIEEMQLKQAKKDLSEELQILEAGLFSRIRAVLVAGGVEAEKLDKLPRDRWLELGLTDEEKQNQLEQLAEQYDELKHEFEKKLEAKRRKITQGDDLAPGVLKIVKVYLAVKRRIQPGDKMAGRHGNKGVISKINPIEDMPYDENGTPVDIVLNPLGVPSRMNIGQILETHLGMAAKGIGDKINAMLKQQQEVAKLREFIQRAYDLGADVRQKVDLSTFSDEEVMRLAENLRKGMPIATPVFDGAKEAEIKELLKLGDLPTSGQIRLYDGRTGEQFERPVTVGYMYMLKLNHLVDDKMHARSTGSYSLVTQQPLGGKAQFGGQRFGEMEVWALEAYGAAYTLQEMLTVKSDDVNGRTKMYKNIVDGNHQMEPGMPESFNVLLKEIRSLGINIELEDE", "sequence (P0A8T7 whole entry partner)": "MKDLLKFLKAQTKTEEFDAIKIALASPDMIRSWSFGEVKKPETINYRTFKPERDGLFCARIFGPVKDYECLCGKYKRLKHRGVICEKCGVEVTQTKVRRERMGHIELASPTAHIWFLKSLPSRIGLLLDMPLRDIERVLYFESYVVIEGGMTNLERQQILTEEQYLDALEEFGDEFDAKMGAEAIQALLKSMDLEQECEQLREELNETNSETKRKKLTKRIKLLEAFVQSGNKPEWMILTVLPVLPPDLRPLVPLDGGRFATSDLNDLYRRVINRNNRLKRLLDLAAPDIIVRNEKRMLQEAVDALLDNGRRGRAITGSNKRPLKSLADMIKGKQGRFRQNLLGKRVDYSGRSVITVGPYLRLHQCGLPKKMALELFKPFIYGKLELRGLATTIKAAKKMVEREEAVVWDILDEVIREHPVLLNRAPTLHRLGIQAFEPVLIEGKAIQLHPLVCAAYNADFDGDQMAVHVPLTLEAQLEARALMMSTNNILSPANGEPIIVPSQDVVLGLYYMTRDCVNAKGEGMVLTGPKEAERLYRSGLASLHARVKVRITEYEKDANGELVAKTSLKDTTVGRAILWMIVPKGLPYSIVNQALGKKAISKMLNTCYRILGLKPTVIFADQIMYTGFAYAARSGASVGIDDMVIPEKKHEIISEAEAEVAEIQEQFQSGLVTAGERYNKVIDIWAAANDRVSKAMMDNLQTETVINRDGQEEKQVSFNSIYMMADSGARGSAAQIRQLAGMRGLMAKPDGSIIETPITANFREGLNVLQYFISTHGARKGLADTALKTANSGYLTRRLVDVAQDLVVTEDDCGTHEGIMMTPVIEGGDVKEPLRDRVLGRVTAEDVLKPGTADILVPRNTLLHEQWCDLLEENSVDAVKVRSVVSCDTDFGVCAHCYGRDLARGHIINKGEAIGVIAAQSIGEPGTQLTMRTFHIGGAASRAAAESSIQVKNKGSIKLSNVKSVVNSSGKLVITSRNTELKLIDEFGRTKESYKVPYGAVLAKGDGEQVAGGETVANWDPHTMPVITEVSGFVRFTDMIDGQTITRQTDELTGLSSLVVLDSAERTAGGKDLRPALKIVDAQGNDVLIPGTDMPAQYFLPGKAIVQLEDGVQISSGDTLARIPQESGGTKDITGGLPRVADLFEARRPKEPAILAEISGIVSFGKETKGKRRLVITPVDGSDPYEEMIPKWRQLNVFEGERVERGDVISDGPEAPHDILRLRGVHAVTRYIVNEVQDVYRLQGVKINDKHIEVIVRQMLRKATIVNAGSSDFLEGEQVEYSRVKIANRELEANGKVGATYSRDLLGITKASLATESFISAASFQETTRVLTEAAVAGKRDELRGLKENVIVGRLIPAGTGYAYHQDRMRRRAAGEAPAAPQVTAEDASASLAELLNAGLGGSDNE", "sequence (P0A7Z4 whole entry partner)": "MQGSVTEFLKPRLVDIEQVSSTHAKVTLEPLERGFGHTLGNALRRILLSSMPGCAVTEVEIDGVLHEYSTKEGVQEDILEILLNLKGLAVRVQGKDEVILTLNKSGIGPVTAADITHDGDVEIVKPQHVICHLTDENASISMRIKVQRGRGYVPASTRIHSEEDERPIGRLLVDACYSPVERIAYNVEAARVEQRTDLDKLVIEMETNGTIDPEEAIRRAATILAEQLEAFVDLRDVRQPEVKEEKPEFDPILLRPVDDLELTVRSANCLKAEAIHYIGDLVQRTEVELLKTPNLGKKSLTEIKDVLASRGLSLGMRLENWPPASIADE", "sequence (P0A800 2-91 partner limits assumed)": "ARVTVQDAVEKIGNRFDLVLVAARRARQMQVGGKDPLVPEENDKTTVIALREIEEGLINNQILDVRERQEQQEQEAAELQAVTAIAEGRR", "assay": "inhibition of the RNA polymerase of Escherichia coli in vitro", "format": "biochemical", "conditions": "not achieved even with 100 μg/ml", "source_text": "The antibiotic action is ascertained, for example, on the one hand in vitro by determining the mean effective concentration EC50 for the inhibition of the RNA polymerase of Escherichia coli and by determining the minimum inhibitory concentration MIC in a conventional plate test, and on the other hand in vivo, using infected mice and rats, by determining the ED50 (effective dose that ensures the survival of 50% of the experimental animals). There are used as micro-organisms for the present purpose especially Mycobacterium tuberculosis TB H37 Rv and Staphylococcus aureus. In the case of compounds having a lipid-reducing indication, an antibiotic activity is regarded as disadvantageous since it can result in the formation of strains of micro-organisms that are resistant to antibiotics, especially when the compounds are administered over a prolonged period."}, "[2]": {"system": "serum lipoproteins (VLDL, LDL and HDL)", "assay": "reduction of serum lipoproteins (VLDL, LDL and HDL) in genetically hypercholesterolaemic rats (procedure A) and normolipaemic rats (procedure B)", "format": "in vivo", "conditions": "repeated administration of 30 mg/kg daily, oral", "experimental": "In contrast, the diacyl compounds of the present invention have, if at all, only a marginal antibiotic action.\nAlbino rats having a body weight of from 180 to 240 g and having free access to normal rat food and drinking water are used, Sprague Dawley derivatives of the strain Tif:RAI in procedure A and animals of the Wistar strain IVa-WI in procedure B. The test compound is administered orally in a polyethylene glycol solution (average molecular weight 400) to groups of from 8 to 10 rats, in procedure A once daily at 8 a.m. for three consecutive days and twice, at 8 a.m. and 4 p.m., on the fourth day, and in the case of procedure B, daily for 5 consecutive days. In experiment A the animals are sacrificed 16 hours, and in experiment B two hours, after the final administration by bleeding from the neck under anaesthesia with ether. The animals are given no food during the 16 hours before they are sacrificed. […] The serum lipoproteins are separated using an unltracentrifuge by means of 24-hour centrifugation at 78,000 g, 78,000 g and 109,000 g in salt solutions having densities of 1.006, 1.040 and 1.21, respectively, and are analysed enzymatically for their content of cholesterol and triglycerides using the test systems supplied, for example, by Miles (Lausanne, Switzerland) and Bohringer (Mannheim, Federal Republic of Germany)."}, "Staphylococcus aureus [3]": {"system": "Staphylococcus aureus", "assay": "in vivo antibiotic action in mice infected with Staphylococcus aureus", "conditions": "single dose of 200 mg/kg"}, "[4]": {"system": "Mycobacterium tuberculosis TB H37 Rv and Staphylococcus aureus", "assay": "antibiotic action, in vitro and in vivo tests as a whole"}, "Staphylococcus aureus [5]": {"system": "Staphylococcus aureus", "assay": "minimum inhibitory concentration in a conventional plate test", "format": "cell-based", "conditions": "read-out: MIC for various pathogenic strains of Staphylococcus aureus"}}, "data": [{"smiles": "COC1C=COC2(C)Oc3c(C)c(OC(=O)C(C)(C)C)c4c(c3C2=O)C(=O)C(N2CCN(Cc3c(C)cc(C)cc3C)CC2)=C(C4=O)N(C(=O)C(C)(C)C)C(=O)C(C)=CC=CC(C)C(O)C(C)C(O)C(C)C(OC(C)=O)C1C", "note": "(stereo not drawn) [8-O,N-dipivaloyl-3-[4-(2,4,6-trimethylbenzyl)-1-piperazinyl]-rifamycin S]", "values": [{"measurement": "EC50", "setting": "[1]", "result": "> 92.6", "unit": "µM"}, {"measurement": "reduction in the \"LDL fraction\"", "setting": "[2]", "result": "50-70%"}, {"measurement": "antibiotic activity in vivo", "setting": "Staphylococcus aureus [3]", "result": "antibiotically inactive"}, {"measurement": "antibiotic activity", "setting": "[4]; overall statement", "result": "practically no antibiotic activity"}, {"measurement": "EC50 and MIC values relative to concentrations normally necessary for a corresponding effect", "setting": "[4]; refers to RNA polymerase EC50 and Staphylococcus aureus MIC", "result": "approximately 1000 times"}, {"measurement": "MIC", "setting": "Staphylococcus aureus [5]", "result": "~64", "unit": "µg/mL"}]}]}
